In patent publication US20250304620A1, “ANTIMICROBIAL PEPTIDE AND APPLICATION THEREOF” (priority 2023, published 2025):
Marks after values point to notes of the source that are not given here. Non-standard residues stand in square brackets, D forms with d. PEG2000 = polyethylene glycol 2000, conjugated to the N-terminus; PEG4000 = polyethylene glycol 4000, conjugated to the C-terminus; 2Nal = N[C@@H](Cc1ccc2ccccc2c1)C(=O)O; PEG1000 = polyethylene glycol 1000

What was measured:
[1] = system: Shigella flexneri ATCC 12022; assay: MIC against clinically common bacterial strain; type: cell-based
From the text: (§1) According to the Standards of Clinical and Laboratory Standards Institute (CLSI) of the USA for antimicrobial drug susceptibility test operation standards, the micronutrient serial twofold dilution method was used further determine MICs of 30 AMPs (S/N: LV-1 to LV-30) 10 clinically common sensitive strains and 6 fungi in clinical practice. The experiment was repeated 5 times in parallel.

[2] = system: Staphylococcus aureus (NRS 384); conditions: MIC vs Staphylococcus aureus (NRS 384) after trypsin treatment 1:10 (w/w), 37° C., 3 h
Protocol: Trypsin (250 U/mg, pH=8.0) and AMPs (LV-1 to LV-30) were mixed in a ratio of 1:10 (w/w) and added to a reaction buffer (0.2 M sodium phosphate, 1 mM CaCl2), pH 7.5), and then incubated at 37° C. for 3 h.

[3] = system: Staphylococcus aureus (NRS 384); assay: microbe, parasite or virus in culture; type: cell-based; conditions: Staphylococcus aureus (NRS 384)
Outline: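 CLSI broth microdilution with serial twofold dilutions gave MICs against S. aureus NRS 384, with 5 parallel replicates. Levofloxacin and the AMP Cbf-K16 served as positive controls.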

[4] = system: carbapenem-resistant Klebsiella pneumoniae (CRKP); type: cell-based; conditions: drug-resistant strain CRKP
From the text: (§2) According to the Standards of Clinical and Laboratory Standards Institute (CLSI) of the USA for antimicrobial drug susceptibility test operation standards, the micronutrient serial twofold dilution method was used further determine MICs of the antimicrobial peptides LV-1 to LV-30 against 5 clinically common drug-resistant bacterial strains. The experiment was repeated 5 times in parallel. […] The tested drug-resistant strains included Methicillin-resistant Staphylococcus aureus (MRSA), carbapenem-resistant Escherichia coli (CREC), vancomycin-resistant Enterococcus (VRE), carbapenem-resistant Pseudomonas aeruginosa (CRPA), and carbapenem-resistant Klebsiella pneumoniae (CRKP).

[5] = system: vancomycin-resistant Enterococcus (VRE); type: cell-based; conditions: drug-resistant strain VRE
From the text: as §2

[6] = system: carbapenem-resistant Pseudomonas aeruginosa (CRPA); type: cell-based; conditions: drug-resistant strain CRPA
From the text: as §2

[7] = system: carbapenem-resistant Escherichia coli (CREC); type: cell-based; conditions: drug-resistant strain CREC
From the text: as §2

[8] = system: Methicillin-resistant Staphylococcus aureus (MRSA); type: cell-based; conditions: drug-resistant strain MRSA
From the text: as §2

[9] = system: Pseudomonas aeruginosa ATCC 27853; assay: Injectable formulations on mice infected with peritonitis; type: in vivo, ICR mice; conditions: 1 mg/kg via tail vein, twice a day for 3 days, n = 10; for Average survival times (Days): observed for 14 d
Protocol: Both female and male ICR mice were used in the test, half of the female and male mice were taken and randomly assigned into groups, with 10 mice in each group, and kept in separate cages. The mice were divided into a blank control group, a negative control group, a positive control Levofloxacin group, and AMPs LV-1 to LV-30 groups. A bacterial suspension of Pseudomonas aeruginosa ATCC 27853 was prepared, a concentration of the suspension was adjusted 1×10^9 CFU/mL for subsequent use. Except for the blank control group, all other mice were injected with the bacterial suspension (0.2 mL, 1×10^9 CFU/mL), into abdominal cavity of the mice, to establish a model. After the model was successfully established, the mice were given drug immediately according to their body weights. Except for the blank control group and the negative control group, the mice in all other groups were administered the corresponding injectable formulations via tail vein, twice a day for 3 consecutive days. The mice were then observed for 14 d. The death of mice in each group was observed, and survival time of the mice was recorded. Results of the effect of the injectable formulations of AMPs LV-1 to LV-30 on the survival time of mice infected with Pseudomonas aeruginosa are shown in Table 10.

[10] = system: Pseudomonas aeruginosa ATCC 27853; type: cell-based
From the text: as §1

[11] = system: Trichophyton ATCC MYA-4438; type: cell-based
From the text: as §1

Enterococcus ATCC 29212 = type: cell-based
From the text: as §1

[12] = system: Serratia marcescens ATCC 29021; type: cell-based
From the text: as §1

[13] = system: Staphylococcus aureus ATCC 25923; type: cell-based
From the text: as §1

Candida krusei ATCC 6258 = type: cell-based
From the text: as §1

[14] = system: Bacillus subtilis ATCC 6633; type: cell-based
From the text: as §1

[15] = system: Salmonella typhimurium ATCC 14028; type: cell-based
From the text: as §1

[16] = system: Klebsiella pneumoniae ATCC 700603; type: cell-based
From the text: as §1

[17] = system: Candida tropicalis ATCC 750; type: cell-based
From the text: as §1

Candida utilis ATCC 9950 = type: cell-based
From the text: as §1

[18] = system: Candida glabrata ATCC 15126; type: cell-based
From the text: as §1

[19] = system: Corynebacterium ATCC 7715; type: cell-based
From the text: as §1

[20] = system: Candida albicans ATCC MYA-2876; type: cell-based
From the text: as §1

[21] = system: Escherichia coli ATCC 25922; type: cell-based
From the text: as §1

| Substance | MIC Shigella flexneri ATCC 12022 [1] | Trypsin MIC [2] | MIC against Staphylococcus aureus (NRS 384) [3] | MIC CRKP [4] | MIC VRE [5] | MIC CRPA [6] | MIC CREC [7] | MIC MRSA [8] | Number of mice that died on each day after infection: day 1 [9] | Number of mice that died on each day after infection: day 2 [9] | Number of mice that died on each day after infection: day 3 [9] | Number of mice that died on each day after infection: day 4 [9] | Number of mice that died on each day after infection: day 5 [9] | Average survival times (Days) [9] | MIC Pseudomonas aeruginosa ATCC 27853 [10] | MIC Trichophyton ATCC MYA-4438 [11] | MIC Enterococcus ATCC 29212 (Enterococcus ATCC 29212) | MIC Serratia marcescens ATCC 29021 [12] | MIC Staphylococcus aureus ATCC 25923 [13] | MIC Candida krusei ATCC 6258 (Candida krusei ATCC 6258) | other results |
| --- | --- | --- | --- | --- | --- | --- | --- | --- | --- | --- | --- | --- | --- | --- | --- | --- | --- | --- | --- | --- | --- |
| Ac-RKLLXRLKXRK-PEG1000 [LV-28] (Ac-RKLL[2Nal]RLK[2Nal]RK-PEG1000) [polyethylene glycol 1000 conjugated to C-terminal; X=3-(2-naphthyl)-alanine] | 4 µg/mL | 1 µg/mL | 1 µg/mL | 4 µg/mL | 4 µg/mL | 8 µg/mL | 4 µg/mL | 4 µg/mL | 1 Mouse | 0 Mouse | 1 Mouse | 1 Mouse | 1 Mouse | 9.7*** Days | 2 µg/mL | 8 µg/mL | 8 µg/mL | 8 µg/mL | 2 µg/mL | 4 µg/mL | MIC Bacillus subtilis ATCC 6633 [14]: 4 µg/mL; MIC Salmonella typhimurium ATCC 14028 [15]: 4 µg/mL; MIC Klebsiella pneumoniae ATCC 700603 [16]: 4 µg/mL; MIC Candida tropicalis ATCC 750 [17]: 4 µg/mL; MIC Candida utilis ATCC 9950 (Candida utilis ATCC 9950): 8 µg/mL; MIC Candida glabrata ATCC 15126 [18]: 8 µg/mL; MIC Corynebacterium ATCC 7715 [19]: 8 µg/mL; MIC Candida albicans ATCC MYA-2876 [20]: 8 µg/mL; MIC Escherichia coli ATCC 25922 [21]: 2 µg/mL |
| Ac-RKLLXRLKXRK-PEG4000 [LV-30] (Ac-RKLL[2Nal]RLK[2Nal]RK-PEG4000) [polyethylene glycol 4000 conjugated to C-terminal; X=3-(2-naphthyl)-alanine] | 2 µg/mL | 1 µg/mL | 1 µg/mL | 4 µg/mL | 4 µg/mL | 8 µg/mL | 4 µg/mL | 8 µg/mL | 1 Mouse | 1 Mouse | 0 Mouse | 1 Mouse | 1 Mouse | 9.6*** Days | 2 µg/mL | 8 µg/mL | 4 µg/mL | 8 µg/mL | 2 µg/mL | 16 µg/mL | MIC Bacillus subtilis ATCC 6633 [14]: 2 µg/mL; MIC Salmonella typhimurium ATCC 14028 [15]: 2 µg/mL; MIC Klebsiella pneumoniae ATCC 700603 [16]: 8 µg/mL; MIC Candida tropicalis ATCC 750 [17]: 8 µg/mL; MIC Candida utilis ATCC 9950 (Candida utilis ATCC 9950): 8 µg/mL; MIC Candida glabrata ATCC 15126 [18]: 16 µg/mL; MIC Corynebacterium ATCC 7715 [19]: 8 µg/mL; MIC Candida albicans ATCC MYA-2876 [20]: 8 µg/mL; MIC Escherichia coli ATCC 25922 [21]: 2 µg/mL |
| PEG2000-RKLLXRLKXRK-NH2 [LV-29] (PEG2000-RKLL[2Nal]RLK[2Nal]RK-NH2) [polyethylene glycol 2000 conjugated to N-terminal; X=3-(2-naphthyl)-alanine] | 4 µg/mL | 1 µg/mL | 1 µg/mL | 8 µg/mL | 4 µg/mL | 4 µg/mL | 8 µg/mL | 4 µg/mL | 1 Mouse | 0 Mouse | 0 Mouse | 3 Mouse | 1 Mouse | 8.8** Days | 4 µg/mL | 16 µg/mL | 8 µg/mL | 4 µg/mL | 2 µg/mL | 8 µg/mL | MIC Bacillus subtilis ATCC 6633 [14]: 4 µg/mL; MIC Salmonella typhimurium ATCC 14028 [15]: 4 µg/mL; MIC Klebsiella pneumoniae ATCC 700603 [16]: 4 µg/mL; MIC Candida tropicalis ATCC 750 [17]: 4 µg/mL; MIC Candida utilis ATCC 9950 (Candida utilis ATCC 9950): 4 µg/mL; MIC Candida glabrata ATCC 15126 [18]: 8 µg/mL; MIC Corynebacterium ATCC 7715 [19]: 16 µg/mL; MIC Candida albicans ATCC MYA-2876 [20]: 8 µg/mL; MIC Escherichia coli ATCC 25922 [21]: 1 µg/mL |
